Results published in US12673961B2 (Agios Pharmaceuticals, Inc., priority 2022, dated 2026).

biological target: T1, human PAH with the R408W mutation (Homo sapiens, UniProt P00439, R408W); experiment: Cell Based Phenylalanine Flux Assay; conditions: A375 cells expressing R408W PAH; 24 hrs with compound, then 20 μM sepiapterin and 800 μM 13C9,15N-Phenylalanine for 4 hours; 13C-Tyrosine in media by LC-MS; average where tested multiple times; read-out: AC50;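 further: Ten-point dose curve from 2-fold serial dilutions, run in duplicate at 0.5% DMSO final, tracer step used 20 µM sepiapterin and 800 µM labeled phenylalanine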
T1 construct: expressed in transfected cells
T1 sequence (P00439 1-452 R408W): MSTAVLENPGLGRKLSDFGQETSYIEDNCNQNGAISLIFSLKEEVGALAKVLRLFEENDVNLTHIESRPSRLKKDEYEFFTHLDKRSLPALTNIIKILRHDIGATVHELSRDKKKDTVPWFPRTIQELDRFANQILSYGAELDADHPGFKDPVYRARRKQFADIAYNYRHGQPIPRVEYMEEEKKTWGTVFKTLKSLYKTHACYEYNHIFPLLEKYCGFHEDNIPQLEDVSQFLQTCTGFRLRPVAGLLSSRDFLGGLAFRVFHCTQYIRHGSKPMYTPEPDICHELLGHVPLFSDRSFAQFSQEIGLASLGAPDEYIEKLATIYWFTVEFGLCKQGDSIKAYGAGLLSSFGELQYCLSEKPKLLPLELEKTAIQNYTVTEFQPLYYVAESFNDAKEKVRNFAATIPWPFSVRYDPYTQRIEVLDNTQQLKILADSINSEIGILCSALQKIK

Compound | AC50
COCc1ccc2c(C(=O)N3CCc4[nH]cnc4[C@H]3c3cc4ccccn4n3)cnn2c1 (single isomer, unassigned) | 1000 to 5000 nM

same assay, conditions: A375 cells expressing human R408W PAH; 24 hrs compound incubation; 13C-Tyrosine by LC-MS; average where tested multiple times; read-out: AC50

Compound | AC50
Cc1cc(-c2nnc(C(=O)N3CCc4[nH]cnc4[C@H]3c3cc4c(F)cccn4n3)o2)nn1C [Example 883, (S)-(5-(1,5-dimethyl-1H-pyrazol-3-yl)-1,3,4-oxadiazol-2-yl)(4-(4-fluoropyrazolo[1,5-a]pyridin-2-yl)-6,7-dihydro-1H-imidazo[4,5-c]pyridin-5(4H)-yl)methanone] | < 500 nM
Cc1c([C@H]2c3nc[nH]c3CCN2C(=O)c2oc(C(C)(C)O)nc2C(F)F)nn2ccccc12 [Example 787, (R)-(4-(difluoromethyl)-2-(2-hydroxypropan-2-yl)oxazol-5-yl)(4-(3-methylpyrazolo[1,5-a]pyridin-2-yl)-6,7-dihydro-1H-imidazo [4,5-c]pyridin-5(4H)-yl)methanone] | 1000 to 5000 nM
C[C@H](O)c1nc(C(F)F)c(C(=O)N2CCc3[nH]cnc3[C@@H]2c2cc3c(F)cccn3n2)o1 [Example 713, (4-(difluoromethyl)-2-((S)-1-hydroxyethyl)oxazol-5-yl)((R)-4-(4-fluoropyrazolo [1,5-a]pyridin-2-yl)-6,7-dihydro-1H-imidazo[4,5-c]pyridin-5(4H)-yl)methanone] | > 5000 nM
Cc1ccc2cc([C@@H]3c4nc[nH]c4CCN3C(=O)c3oc(C(C)(C)O)nc3C(F)F)nn2c1 [Example 804] | < 500 nM

The remaining lines, values ahead:

AC50 | Compound
1000 to 5000 nM | Cc1cccc2cc([C@H]3c4nc[nH]c4CCN3C(=O)c3nnc(C4(C)CC4)o3)nn12 [Example 1318, (R)-(5-(1-methylcyclopropyl)-1,3,4-oxadiazol-2-yl)(4-(7-methylpyrazolo[1,5-a]pyridin-2-yl)-6,7-dihydro-1H-imidazo[4,5-c]pyridin-5(4H)-yl)methanone]
< 500 nM | CC(C)(F)c1nnc(C(=O)N2CCc3[nH]cnc3[C@H]2c2cc3c(C(F)F)cccn3n2)o1 [Example 1350, (S)-(4-(4-(difluoromethyl)pyrazolo[1,5-a]pyridin-2-yl)-6,7-dihydro-1H-imidazo [4,5-c]pyridin-5(4H)-yl)(5-(2-fluoropropan-2-yl)-1,3,4-oxadiazol-2-yl)methanone]
1000 to 5000 nM | O=C(c1nnc(-c2cnccn2)o1)N1CCc2[nH]cnc2[C@@H]1c1cc2c(Cl)cccn2n1 [Example 1333, (R)-(4-(4-chloropyrazolo [1,5-a]pyridin-2-yl)-6,7-dihydro-1H-imidazo[4,5-c]pyridin-5(4H)-yl)(5-(pyrazin-2-yl)-1,3,4-oxadiazol-2-yl)methanone]

same assay, conditions: A375 cells expressing human R408W PAH; 24 hrs with compound, then sepiapterin and 13C9,15N-Phenylalanine for 4 hours; 13C-Tyrosine by LC-MS; average where tested multiple times; read-out: AC50

AC50 | Compound
> 5000 nM | O=C(c1nnc(-c2cccnc2)o1)N1CCc2[nH]cnc2[C@@H]1c1cc2c(C(F)F)cccn2n1 [Example 1423, (R)-(4-(4-(difluoromethyl)pyrazolo[1,5-a]pyridin-2-yl)-6,7-dihydro-1H-imidazo [4,5-c]pyridin-5(4H)-yl)(5-(pyridin-3-yl)-1,3,4-oxadiazol-2-yl)methanone]
< 500 nM | O=C(c1ocnc1C1CC1)N1CCc2[nH]cnc2[C@H]1c1cc2c(Cl)cccn2n1 [Example 2040, (S)-(4-(4-chloropyrazolo [1,5-a]pyridin-2-yl)-1,4,6,7-tetrahydro-5H-imidazo [4,5-c]pyridin-5-yl)(4-cyclopropyloxazol-5-yl) methanone]
> 5000 nM | O=C(c1nnc(-c2ccccn2)o1)N1CCc2[nH]cnc2[C@@H]1c1cc2c(Br)cccn2n1 [Example 1910, (R)-(4-(4-bromopyrazolo [1,5-a]pyridin-2-yl)-1,4,6,7-tetrahydro-5H-imidazo[4,5-c]pyridin-5-yl)(5-(pyridin-2-yl)-1,3,4-oxadiazol-2-yl)methanone]
> 5000 nM | CC(C)c1cccn2nc([C@H]3c4nc[nH]c4CCN3C(=O)c3nnc(-c4ccn(C(F)F)n4)o3)cc12 [Example 1982, (R)-(5-(1-(difluoromethyl)-1H-pyrazol-3-yl)-1,3,4-oxadiazol-2-yl)(4-(4-isopropylpyrazolo[1,5-a]pyridin-2-yl)-1,4,6,7-tetrahydro-5H-imidazo[4,5-c]pyridin-5-yl)methanone]
